The record followed here is patent US6576263B2, “Delivery systems using preformed biodegradable polymer compositions and methods” (3M Innovative Properties Company, priority 2000, dated 2003).

Holding throughout (type): physicochemical
Data set [1] in a line: Release of cefazolin from albumin plugs made with 4-arm PEG crosslinker. The following applies: albumin/4-arm PEG plug, PBS pH 7.4, room temperature. As to the method: Two polymer plugs were preformed from 0.5 ml of 30% albumin solution (Procedure B) and 0.5 ml of 110 mg/ml 4-arm-N-hydroxysuccinimidyl ester of poly(ethylene glycol)-succinate crosslinker (Shearwater Polymers, Inc., Huntsville, Ala.). Approximately 10 mg of sodium cefazolin (Sigma Chemical. Co., St. Louis, Mo.) was dissolved in the albumin before the crosslinker was added to form the cylindrical plugs. Each formed plug was placed into a separate vial, and 8 mls of phosphate buffered saline (PBS) at pH 7.4 was added at sample time (t0). The vials were maintained at room temperature and were shaken continuously. At each sample time, the entire content of the vial was removed and replaced with eight ml of fresh PBS. Samples were taken at 0.25, 0.5, 1, 2, 3, 4, 5, and 24 hours and approximately every 24 hours thereafter up to 144 hours.
Cefazolin was analyzed by high-pressure liquid chromatography, following the method of Liang et al, J. Chromatog. B., 656, 45-465 (1994). The column was a Waters C-18 (3.9×300 mm) column sold under the tradename MICROBONDAPAK and the column temperature was maintained at 25° C. The mobile phase consisted of 0.02M sodium phosphate buffer (pH=5.0 and methanol (77:23). The wavelength used for detection was 270 nm and the column flow rate was 1.0 ml/min.

Data set [2] can be described thus: Release of 5FU from preformed, dried albumin/PEG-(SS)2 plugs reconstituted with 5FU solution. The following applies: rehydrated albumin/PEG-(SS)2 plug, PBS pH 7.4, room temperature. On the procedure:
Two polymer plugs were preformed in a modified 5-milliliter (ml) poly syringe, wherein the syringe barrel was cut to form an open cylindrical receptacle, and then by mixing 0.5 ml of 29% albumin solution (obtained from American Biological Technology, Seguin, Tex. or by diafiltration (Procedure B) as described above) and 0.5 ml of 136 mg/ml PEG-(SS)2 crosslinker. After crosslinking was complete (15 minutes) the plugs were removed from the syringe and pushed out. The polymer plugs were dried under vacuum for 24 hours (hr). The plugs were reconstituted with […] of a 5FU solution (1.04 mg/ml from Sigma Chemical Co, St. Louis, Mo.) so that each plug contained a total of 187.6 micrograms (μg), or 165.5 μg of 5FU. Each plug was placed into a separate vial, and five ml of phosphate buffered saline (PBS), at pH 7.4, were added at sample time 0 (t0). The vials were maintained at room temperature and were shaken continuously. At each sample time, the entire content of the vial was removed and replaced with 5 ml of fresh PBS. Samples were taken at 0.25 hr, 0.5 hr, 1 hr, 2 hr, 3 hr, 4 hr, 5 hr, 6 hr, and 24 hr. Ana of 5FU was analyzed by high-pressure liquid chromatography, following the method of Bernatchez et al., Int. J. Pharm., 106, 161-166 (1994).

Data set [3] is described as follows: Release of 5-fluorouracil from plug made with 5FU mixed with the crosslinker and albumin. The following applies: over an 8-hr period; 5FU added with crosslinker, PBS pH 7.4, room temperature.
Procedure: 136 mg of PEG-(SS)2 crosslinker was dissolved in 1 ml of a 1.04 mg/ml 5-Fluorouracil solution. This solution was then mixed into 1 ml of 30% albumin solution (see Example 2) already in a 5-ml form. The resulting hydrogel plug was removed from the form after 15 minutes and cut into three equal sized pieces (approximately 0.5 cm in thickness). Each piece was then placed into a vial and 4 ml of a PBS buffer (pH 7.4) added at sample time 0 (t0). The vials were maintained at room temperature and were shaken continuously. At each sample time, the entire content of the vial was removed and replaced with 4 ml of fresh PBS. Samples were taken at 1 hr, 2 hr, 4 hr, and 8 hr.
A short description of data set [4]: Release of 5FU from albumin plugs containing alginic acid without added calcium. The following applies: over a 5-hr period; alginate/5FU without calcium in albumin plug, PBS pH 7.4. As to the method: (§1) One milliliter of 1.04 mg/ml 5-fluorouracil was mixed with 30 mg of alginic acid. The pH of the mixture was brought to 6.8, and then placed into a vacuum desiccator with DRIERITE to dry for 24 hr. The resulting alginate/5FU film was ground up and mixed into the 30% albumin solution (see Example 2) just prior to being placed into the 5 ml syringe forms and crosslinked with an equivalent volume of PEG-(SS)2 crosslinker (136 mg/ml). Each plug was placed into a separate vial, and 5 ml of phosphate buffered saline (PBS), at pH 7.4, was added at sample time 0 (t0). The vials were maintained at room temperature and were shaken continuously. At each sample time, the entire content of the vial was removed and replaced with 5 ml of fresh PBS. Samples were taken at 1 hr, 2 hr, 3 hr, 4 hr, 5 hr, and 24 hr.
The 5FU was analyzed as in Example 1.

A short description of data set [5]: Release of 5FU from albumin plugs containing alginic acid with added calcium. The following applies: over a 5-hr period; alginate/Ca/5FU in albumin plug, PBS pH 7.4. As to the method:
as §1, with “One ml of 1.04” for “One milliliter of 1.04”, “6.8, and 150 μl of a saturated calcium chloride/water solution was added to gel the alginate. The gel was divided into 3 approximately equal volumes and then placed” for “6.8, and then placed”, “The resulting alginate/Ca/5FU films were ground up” for “The resulting alginate/5FU film was ground up”, “into the 5-ml forms and” for “into the 5 ml syringe forms and”, “vial, and five mls of phosphate” for “vial, and 5 ml of phosphate”
The 5FU was analyzed as described in Example 1.

On to `Cc1nnc(SCC2=C(C(=O)O)N3C(=O)[C@@H](NC(=O)Cn4cnnn4)[C@H]3SC2)s1` [cefazolin], for which the total cefazolin released in data set [1] (over 144 hours) turned out to be 95.6%. In addition, the cefazolin released result in data set [1] (over the first 5-hour time period) is given as “approximately 67%”.
For the compound `O=c1[nH]cc(F)c(=O)[nH]1` [Example 5FU, 5-fluorouracil], in data set [2], the “time period over which 5FU was released” value turned out to be 5 h. In addition, in data set [3], the 5-fluorouracil released entry is “about 55%”. For the same compound, the 5FU released entry in data set [4] is “about 40%”; in data set [5] it was “about 60%”.
